Reference: PubChem BioAssay AID256 (DTP/NCI, 2004)
Values joined by “and” are separate entries in the source; they are usually repeats but may differ in a detail not shown here. Equal entries are not always repeated. Inconclusive results and toxic doses are left out.

Tested on: CD2F1 mice, L1210 leukemia ip, survival T/C
Experiment: NCI In Vivo Anticancer Drug Screen. Data for tumor model L1210 Leukemia (intraperitoneal) in CD2F1 (CDF1) mice
Conditions: endpoint: mean survival time, higher = longer survival
In short: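 In this screen, transplantable tumors were grown in mice given either the compound or its vehicle. Results were expressed as the treated measurement relative to the control measurement.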

[1] = dose: 25.0 mg/kg/injection, schedule: Q01DX009 (ip), vehicle: saline
[2] = dose: 100.0 mg/kg/injection, schedule: Q01DX001 (ip), vehicle: saline with Tween-80
[3] = dose: 100.0 mg/kg/injection, schedule: Q04DX003 (ip), vehicle: saline with Tween-80
[4] = dose: 200.0 mg/kg/injection, schedule: Q04DX003 (ip), vehicle: saline with Tween-80
[5] = dose: 400.0 mg/kg/injection, schedule: Q04DX003 (ip), vehicle: saline with Tween-80
[6] = dose: 100.0 mg/kg/injection, schedule: Q01DX009 (ip), vehicle: saline with Tween-80
[7] = dose: 200.0 mg/kg/injection, schedule: Q01DX009 (ip), vehicle: saline with Tween-80
[8] = dose: 25.0 mg/kg/injection, schedule: Q01DX009 (ip), vehicle: water

CN1CCC(=C(C#N)C#N)CC1
T/C [1]: 103 % of control
T/C (dose: 50.0 mg/kg/injection, schedule: Q01DX009 (ip), vehicle: saline): 94 % of control
T/C (dose: 100.0 mg/kg/injection, schedule: Q01DX009 (ip), vehicle: saline): 96 % of control

N#CC(C#N)=C1CCN2CCCc3cccc1c32
T/C [2]: 100 % of control
T/C (dose: 200.0 mg/kg/injection, schedule: Q01DX001 (ip), vehicle: saline with Tween-80): 95 % of control
T/C (dose: 400.0 mg/kg/injection, schedule: Q01DX001 (ip), vehicle: saline with Tween-80): 111 % of control

CN(C)CCNCc1cn(C2CC(O)C(CO)O2)c(=O)[nH]c1=O (stereo not drawn)
T/C (dose: 12.5 mg/kg/injection, schedule: Q01DX005 (ip), vehicle: water): 105 % of control
T/C (dose: 25.0 mg/kg/injection, schedule: Q01DX005 (ip), vehicle: water): 103 % of control
T/C (dose: 50.0 mg/kg/injection, schedule: Q01DX005 (ip), vehicle: water): 106 % of control
T/C (dose: 100.0 mg/kg/injection, schedule: Q01DX005 (ip), vehicle: water): 103 % of control
T/C (dose: 200.0 mg/kg/injection, schedule: Q01DX005 (ip), vehicle: water): 114 % of control

NC/C(=N\Nc1ccc([N+](=O)[O-])cc1[N+](=O)[O-])c1ccccc1
T/C (dose: 100.0 mg/kg/injection, schedule: Q04DX003 (ip), vehicle: saline): 103 % of control
T/C (dose: 200.0 mg/kg/injection, schedule: Q04DX003 (ip), vehicle: saline): 100 % of control
T/C (dose: 400.0 mg/kg/injection, schedule: Q04DX003 (ip), vehicle: saline): 97 % of control

CCOP(=O)(CC(=O)O)c1ccccc1 (stereo not drawn)
T/C (dose: 25.0 mg/kg/injection, schedule: Q04DX002 (ip), vehicle: saline with Tween-80): 96 % of control
T/C (dose: 50.0 mg/kg/injection, schedule: Q04DX002 (ip), vehicle: saline with Tween-80): 100 % of control
T/C (dose: 100.0 mg/kg/injection, schedule: Q04DX002 (ip), vehicle: saline with Tween-80): 92 % of control

c1cc[c]([Pb]([c]2ccccc2)([c]2ccccc2)[n]2cccc2)cc1
T/C (dose: 6.25 mg/kg/injection, schedule: Q01DX009 (ip), vehicle: acetone): 96 % of control
T/C (dose: 12.5 mg/kg/injection, schedule: Q01DX009 (ip), vehicle: acetone): 88 % of control
T/C (dose: 12.5 mg/kg/injection, schedule: Q04DX003 (ip), vehicle: acetone): 88 % of control
T/C (dose: 25.0 mg/kg/injection, schedule: Q04DX003 (ip), vehicle: acetone): 93 % of control

C=CC1(C)CCN=C(CCC(C(=O)OCC)C(=O)OCC)O1 (stereo not drawn)
T/C (dose: 100.0 mg/kg/injection, schedule: Q01DX001 (ip), vehicle: saline sonified): 103 % of control
T/C (dose: 200.0 mg/kg/injection, schedule: Q01DX001 (ip), vehicle: saline sonified): 97 % of control
T/C (dose: 400.0 mg/kg/injection, schedule: Q01DX001 (ip), vehicle: saline sonified): 100 % of control

O=C(NCc1ccccc1)C1C2CCC(C2)C1C(=O)NCc1ccccc1 (stereo not drawn)
T/C [3]: 102 % of control
T/C [4]: 102 % of control
T/C [5]: 98 % of control

CN(C)C(=S)Nc1ccccc1
T/C [6]: 95 % of control
T/C [3]: 93 % of control
T/C [7]: 95 % of control
T/C [4]: 90 % of control
T/C [5]: 88 % of control

COC1OC(COC(C)=O)C(OC(C)=O)C(OC(C)=O)[CH]1[Hg][O]C(C)=O (stereo not drawn)
T/C (dose: 6.25 mg/kg/injection, schedule: Q01DX009 (ip), vehicle: saline): 106 % of control
T/C (dose: 12.5 mg/kg/injection, schedule: Q01DX009 (ip), vehicle: saline): 108 % of control
T/C [1]: 97 % of control

O=C(Nc1cccc2ccccc12)OC1CCCCC1Br (stereo not drawn)
T/C (dose: 6.25 mg/kg/injection, schedule: Q01DX001 (ip), vehicle: saline with Tween-80): 100 % of control
T/C (dose: 12.5 mg/kg/injection, schedule: Q01DX001 (ip), vehicle: saline with Tween-80): 92 % of control
T/C (dose: 25.0 mg/kg/injection, schedule: Q01DX001 (ip), vehicle: saline with Tween-80): 100 % of control
T/C (dose: 50.0 mg/kg/injection, schedule: Q01DX001 (ip), vehicle: saline with Tween-80): 93 % of control
T/C [2]: 89 % of control

CC(=O)OC1=NC(C)c2c1cc(OC(C)=O)[nH]c2=O (stereo not drawn)
T/C (dose: 6.25 mg/kg/injection, schedule: Q01DX009 (ip), vehicle: Klucel (hydroxypropylcellulose) (HPC)): 104 % of control and 107 % of control
T/C (dose: 12.5 mg/kg/injection, schedule: Q01DX009 (ip), vehicle: Klucel (hydroxypropylcellulose) (HPC)): 101 % of control and 106 % of control
T/C (dose: 25.0 mg/kg/injection, schedule: Q01DX009 (ip), vehicle: Klucel (hydroxypropylcellulose) (HPC)): 104 % of control and 110 % of control
T/C (dose: 50.0 mg/kg/injection, schedule: Q01DX009 (ip), vehicle: Klucel (hydroxypropylcellulose) (HPC)): 100 % of control and 101 % of control
T/C (dose: 100.0 mg/kg/injection, schedule: Q01DX009 (ip), vehicle: Klucel (hydroxypropylcellulose) (HPC)): 113 % of control and 102 % of control

COc1ccc2c[n+](C)c3c4cc(OC)c(OC)cc4ccc3c2c1
T/C (dose: 25.0 mg/kg/injection, schedule: Q04DX003 (ip), vehicle: saline with Tween-80): 96 % of control

S=C1N(C2CCCCC2)CCN1C1CCCCC1
T/C (dose: 25.0 mg/kg/injection, schedule: Q01DX001 (ip), vehicle: Klucel (hydroxypropylcellulose) (HPC)): 108 % of control
T/C (dose: 50.0 mg/kg/injection, schedule: Q01DX001 (ip), vehicle: Klucel (hydroxypropylcellulose) (HPC)): 108 % of control
T/C (dose: 100.0 mg/kg/injection, schedule: Q01DX001 (ip), vehicle: Klucel (hydroxypropylcellulose) (HPC)): 103 % of control

CC1(C)N=C(N)N=C(N)N1c1ccccc1Cl
T/C (dose: 25.0 mg/kg/injection, schedule: Q04DX002 (ip), vehicle: saline): 103 % of control
T/C (dose: 50.0 mg/kg/injection, schedule: Q04DX002 (ip), vehicle: saline): 100 % of control

COC(=O)c1ccccc1N=NNc1cccc(SC)c1
T/C (dose: 50.0 mg/kg/injection, schedule: Q01DX009 (ip), vehicle: saline with Tween-80): 95 % of control
T/C [6]: 103 % of control
T/C [7]: 97 % of control

CCCCNS(=O)(=O)c1ccccc1
T/C [3]: 97 % of control
T/C [4]: 96 % of control

COc1cccc(C(=O)c2ccncc2)c1OC
T/C [8]: 91 % of control
T/C (dose: 100.0 mg/kg/injection, schedule: Q01DX009 (ip), vehicle: water): 95 % of control
T/C (dose: 200.0 mg/kg/injection, schedule: Q01DX009 (ip), vehicle: water): 90 % of control

CCC(=O)OCC(=O)[C@]1(O)Cc2c(O)c3c(c(O)c2[C@@H](OC2CC(N)C(O)C(C)O2)C1)C(=O)c1c(OC)cccc1C3=O (stereo partly drawn)
T/C (dose: 0.25 mg/kg/injection, schedule: Q01DX009 (ip), vehicle: saline): 112 % of control
T/C (dose: 0.5 mg/kg/injection, schedule: Q01DX009 (ip), vehicle: saline): 122 % of control
T/C (dose: 1.5 mg/kg/injection, schedule: Q04DX003 (ip), vehicle: saline sonified): 166 % of control
T/C (dose: 2.0 mg/kg/injection, schedule: Q01DX009 (ip), vehicle: saline): 155 % of control
T/C (dose: 2.0 mg/kg/injection, schedule: Q04DX003 (ip), vehicle: saline with Tween-80): 118 % of control
T/C (dose: 8.0 mg/kg/injection, schedule: Q01DX009 (ip), vehicle: saline): 89 % of control

OCCOc1ccc(Cl)cc1Cl
T/C (dose: 75.0 mg/kg/injection, schedule: Q04DX003 (ip), vehicle: saline with Tween-80): 98 % of control
T/C (dose: 150.0 mg/kg/injection, schedule: Q04DX003 (ip), vehicle: saline with Tween-80): 97 % of control
T/C (dose: 300.0 mg/kg/injection, schedule: Q04DX003 (ip), vehicle: saline with Tween-80): 98 % of control

O=C(O)c1c(F)c(F)c(F)c(Br)c1F
T/C [3]: 93 % of control
T/C [4]: 93 % of control

N=C(N)c1ccc(/C=C/c2ccc(C(=N)N)cc2O)cc1
T/C (dose: 3.12 mg/kg/injection, schedule: Q01DX009 (ip), vehicle: water): 91 % of control
T/C (dose: 6.25 mg/kg/injection, schedule: Q01DX009 (ip), vehicle: water): 97 % of control
T/C (dose: 12.5 mg/kg/injection, schedule: Q01DX009 (ip), vehicle: water): 103 % of control
T/C [8]: 105 % of control
T/C (dose: 50.0 mg/kg/injection, schedule: Q01DX009 (ip), vehicle: water): 111 % of control

C=C(Cl)CSCCO
T/C [6]: 100 % of control
T/C [7]: 104 % of control
T/C (dose: 400.0 mg/kg/injection, schedule: Q01DX009 (ip), vehicle: saline with Tween-80): 98 % of control

COc1cc2c(c(OC)c1OC)-c1ccc(SC)c(=O)cc1[C@@H](NC1OCC(O)C(O)C1O)CC2 (stereo partly drawn)
T/C (dose: 6.0 mg/kg/injection, schedule: Q01DX009 (ip), vehicle: other): 102 % of control
T/C (dose: 12.0 mg/kg/injection, schedule: Q01DX009 (ip), vehicle: other): 120 % of control
T/C (dose: 12.5 mg/kg/injection, schedule: Q01DX009 (ip), vehicle: other): 106 % of control
T/C (dose: 25.0 mg/kg/injection, schedule: Q01DX009 (ip), vehicle: other): 119 % of control
T/C (dose: 100.0 mg/kg/injection, schedule: Q01DX009 (ip), vehicle: other): 88 % of control
